Results: ChEMBL document CHEMBL1201862, “PubChem BioAssay data set” (2004)
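96-well plates; 48 h exposure; 5 concentrations. Endpoints by linear interpolation between flanking doses. Not reached: highest tested concentration assigned. GI50 = concentration required for 50% inhibition of growth.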 Active and inactive are the calls of the source. Cut-off read from the data, not from the text of the source: active = GI50 up to about 1.1 µM and inactive = higher.

Tests used:
Test in all cases: NCI-60 cell line screen, 48 h
UO-31 = test system: UO-31
M14 = test system: M14
MCF7 = test system: MCF7
EKVX = test system: EKVX
A498 = test system: A498
KM12 = test system: KM12
NCI-H23 = test system: NCI-H23
SN12C = test system: SN12C
SNB-19 = test system: SNB-19
SK-MEL-28 = test system: SK-MEL-28
SF-268 = test system: SF-268
SF-295 = test system: SF-295
MDA-MB-435 = test system: MDA-MB-435
SNB-75 = test system: SNB-75
HCC 2998 = test system: HCC 2998
HL-60 = test system: HL-60
UACC-257 = test system: UACC-257
TK-10 = test system: TK-10
CCRF-CEM = test system: CCRF-CEM
NCI-H522 = test system: NCI-H522

| Structure (SMILES) | GI50 (UO-31) | GI50 (M14) | GI50 (MCF7) | GI50 (EKVX) | GI50 (A498) | GI50 (KM12) | GI50 (NCI-H23) | GI50 (SN12C) | GI50 (SNB-19) | GI50 (SK-MEL-28) | GI50 (SF-268) | GI50 (SF-295) | GI50 (MDA-MB-435) | GI50 (SNB-75) | GI50 (HCC 2998) | GI50 (HL-60) | GI50 (UACC-257) | GI50 (TK-10) | GI50 (CCRF-CEM) | GI50 (NCI-H522) |
| --- | --- | --- | --- | --- | --- | --- | --- | --- | --- | --- | --- | --- | --- | --- | --- | --- | --- | --- | --- | --- |
| CC(=O)NC(C)(C)C1CCC(C)CC1 (stereo not drawn) | > 100 µM (inactive) | > 100 µM (inactive) | > 100 µM (inactive) | > 100 µM (inactive) | > 100 µM (inactive) | > 100 µM (inactive) | > 100 µM (inactive) | > 100 µM (inactive) | > 100 µM (inactive) | > 100 µM (inactive) | > 100 µM (inactive) | > 100 µM (inactive) | > 100 µM (inactive) | > 100 µM (inactive) | > 100 µM (inactive) | > 100 µM (inactive) | > 100 µM (inactive) | > 100 µM (inactive) | > 100 µM (inactive) | – |
| COc1ccccc1/N=N/C(C(=O)c1ccccc1)C(=O)c1ccccc1 | 12.8 µM (inactive) | 15 µM (inactive) | – | 21.4 µM (inactive) | 25.2 µM (inactive) | 29.2 µM (inactive) | 19.2 µM (inactive) | 17.2 µM (inactive) | 17.2 µM (inactive) | 26.9 µM (inactive) | 21.1 µM (inactive) | 17.8 µM (inactive) | – | 19.9 µM (inactive) | 27.1 µM (inactive) | 7.8 µM (inactive) | 28.4 µM (inactive) | 50.2 µM (inactive) | 7.91 µM (inactive) | 16.1 µM (inactive) |
| CC12CCC(CC(=O)/C1=C(/Br)I)C2(C)C (stereo not drawn) | 18.2 µM (inactive) | 14.4 µM (inactive) | – | 19.5 µM (inactive) | 19.3 µM (inactive) | 17.9 µM (inactive) | 13.5 µM (inactive) | 15.8 µM (inactive) | 15.3 µM (inactive) | 16.2 µM (inactive) | 14.6 µM (inactive) | 0.31 µM (active) | 13.7 µM (inactive) | 16.3 µM (inactive) | – | 3.43 µM (inactive) | 16.2 µM (inactive) | 18.8 µM (inactive) | 14.3 µM (inactive) | – |
| CCOC(=O)[C@H](CCCNC(=O)OC(C)(C)C)NCc1ccc(OC)c(OC)c1 | > 100 µM (inactive) | > 100 µM (inactive) | – | > 100 µM (inactive) | > 100 µM (inactive) | > 100 µM (inactive) | > 100 µM (inactive) | > 100 µM (inactive) | > 100 µM (inactive) | > 100 µM (inactive) | > 100 µM (inactive) | > 100 µM (inactive) | – | > 100 µM (inactive) | > 100 µM (inactive) | > 100 µM (inactive) | > 100 µM (inactive) | > 100 µM (inactive) | > 100 µM (inactive) | > 100 µM (inactive) |
| O=C1OCC(O)=C1C(c1ccc(Cl)cc1)c1cc2c(cc1O)OCO2 (stereo not drawn) | > 100 µM (inactive) | > 100 µM (inactive) | > 100 µM (inactive) | > 100 µM (inactive) | > 100 µM (inactive) | > 100 µM (inactive) | – | > 100 µM (inactive) | > 100 µM (inactive) | > 100 µM (inactive) | > 100 µM (inactive) | – | > 100 µM (inactive) | > 100 µM (inactive) | > 100 µM (inactive) | > 100 µM (inactive) | – | > 100 µM (inactive) | > 100 µM (inactive) | – |
| CC1CCCc2c(-c3ccc(Cl)cc3)nc(N)c(C#N)c21 (stereo not drawn) | 21.6 µM (inactive) | 30 µM (inactive) | 29 µM (inactive) | 18.5 µM (inactive) | 28.4 µM (inactive) | 20.2 µM (inactive) | 30.4 µM (inactive) | 41.4 µM (inactive) | 64.7 µM (inactive) | 34.2 µM (inactive) | 69.3 µM (inactive) | – | 30.1 µM (inactive) | 11.7 µM (inactive) | – | 22.7 µM (inactive) | 27.7 µM (inactive) | 43.7 µM (inactive) | 21.1 µM (inactive) | – |
| O=C(NCCC1([N+](=O)[O-])CCN(C(=O)c2ccccc2)CC1)c1ccccc1 | 55.2 µM (inactive) | > 100 µM (inactive) | – | > 100 µM (inactive) | > 100 µM (inactive) | > 100 µM (inactive) | > 100 µM (inactive) | > 100 µM (inactive) | > 100 µM (inactive) | – | > 100 µM (inactive) | > 100 µM (inactive) | 26.7 µM (inactive) | – | – | > 100 µM (inactive) | 24.7 µM (inactive) | > 100 µM (inactive) | > 100 µM (inactive) | > 100 µM (inactive) |
| COc1ccc2c(c1)c1c3n2CCNN=C3CCC1 | > 43.7 µM (inactive) | > 100 µM (inactive) | – | > 100 µM (inactive) | > 100 µM (inactive) | > 100 µM (inactive) | > 62.8 µM (inactive) | > 61.7 µM (inactive) | > 100 µM (inactive) | > 100 µM (inactive) | 88.7 µM (inactive) | > 100 µM (inactive) | – | 48.6 µM (inactive) | > 100 µM (inactive) | 5.66 µM (inactive) | > 53.8 µM (inactive) | > 53 µM (inactive) | 56.1 µM (inactive) | 21.5 µM (inactive) |
| O=C(O)c1ccc(S(=O)(=O)c2ccccc2)c([N+](=O)[O-])c1 | > 100 µM (inactive) | > 100 µM (inactive) | – | > 100 µM (inactive) | > 100 µM (inactive) | > 100 µM (inactive) | > 100 µM (inactive) | > 100 µM (inactive) | > 100 µM (inactive) | > 100 µM (inactive) | > 100 µM (inactive) | > 100 µM (inactive) | – | > 100 µM (inactive) | > 100 µM (inactive) | > 100 µM (inactive) | > 100 µM (inactive) | > 100 µM (inactive) | > 100 µM (inactive) | > 100 µM (inactive) |
| CN(C)CCCNC1=C(Cl)C(=O)c2c(O)ccc(O)c2C1=O | 6.04 µM (inactive) | 1.51 µM (inactive) | 1.55 µM (inactive) | 3.37 µM (inactive) | > 10 µM (inactive) | 2.99 µM (inactive) | 1.65 µM (inactive) | 1.81 µM (inactive) | 1.94 µM (inactive) | 1.52 µM (inactive) | 1 µM (active) | 1.73 µM (inactive) | 1.6 µM (inactive) | 9.04 µM (inactive) | 1.79 µM (inactive) | – | 1.95 µM (inactive) | 3.84 µM (inactive) | 2.47 µM (inactive) | – |
| C/C(=N/NC(=O)c1ccccc1Nc1ccccc1C(=O)N/N=C(\C)c1ccc(C)cc1)c1ccc(C)cc1 | > 100 µM (inactive) | 47 µM (inactive) | 14.6 µM (inactive) | > 100 µM (inactive) | > 100 µM (inactive) | 74.8 µM (inactive) | > 100 µM (inactive) | > 100 µM (inactive) | > 100 µM (inactive) | > 100 µM (inactive) | > 100 µM (inactive) | 22.9 µM (inactive) | > 100 µM (inactive) | > 100 µM (inactive) | 10.9 µM (inactive) | > 100 µM (inactive) | > 100 µM (inactive) | 18.6 µM (inactive) | 25.2 µM (inactive) | – |
| OC1(c2ccc(Cl)cc2)C(N2CCCC2)c2ccccc2C2=NCCN21 (stereo not drawn) | 33 µM (inactive) | 15.8 µM (inactive) | 28.5 µM (inactive) | 26 µM (inactive) | 21.2 µM (inactive) | 20.1 µM (inactive) | 24.3 µM (inactive) | 30.7 µM (inactive) | 54.3 µM (inactive) | 13.9 µM (inactive) | 47.5 µM (inactive) | 13.6 µM (inactive) | 25.6 µM (inactive) | – | – | 20.7 µM (inactive) | 20.1 µM (inactive) | 14.6 µM (inactive) | 17.6 µM (inactive) | – |
| CC(C)NC(C)Cc1ccccc1 (stereo not drawn) | > 100 µM (inactive) | > 100 µM (inactive) | – | > 100 µM (inactive) | > 100 µM (inactive) | > 100 µM (inactive) | > 100 µM (inactive) | > 100 µM (inactive) | > 100 µM (inactive) | > 100 µM (inactive) | > 100 µM (inactive) | > 100 µM (inactive) | – | > 100 µM (inactive) | > 100 µM (inactive) | > 100 µM (inactive) | > 100 µM (inactive) | > 100 µM (inactive) | > 100 µM (inactive) | > 100 µM (inactive) |
| COc1ccc2cc(C(C)C(O)c3cc(F)c(F)c(F)c3F)ccc2c1 (stereo not drawn) | 86.5 µM (inactive) | > 100 µM (inactive) | > 100 µM (inactive) | 45.5 µM (inactive) | > 100 µM (inactive) | – | 49.8 µM (inactive) | > 100 µM (inactive) | > 100 µM (inactive) | > 100 µM (inactive) | 76.4 µM (inactive) | 40.4 µM (inactive) | > 100 µM (inactive) | 16.3 µM (inactive) | > 100 µM (inactive) | 18.7 µM (inactive) | > 100 µM (inactive) | > 100 µM (inactive) | > 100 µM (inactive) | – |
| C=C=C(C)C(=O)N(C(C)C)C(C)C | > 100 µM (inactive) | > 100 µM (inactive) | > 100 µM (inactive) | > 100 µM (inactive) | > 100 µM (inactive) | – | > 100 µM (inactive) | > 100 µM (inactive) | > 100 µM (inactive) | > 100 µM (inactive) | > 100 µM (inactive) | > 100 µM (inactive) | > 100 µM (inactive) | > 100 µM (inactive) | > 100 µM (inactive) | > 100 µM (inactive) | > 100 µM (inactive) | > 100 µM (inactive) | > 100 µM (inactive) | – |
| Cc1nc2c(O)cc3c4c(n(Cc5ccccc5)c3c2nc1C)C(=O)CCC4 | 56 µM (inactive) | 53.2 µM (inactive) | 19.1 µM (inactive) | > 100 µM (inactive) | 34 µM (inactive) | > 100 µM (inactive) | 51.2 µM (inactive) | > 100 µM (inactive) | 23.3 µM (inactive) | 22.5 µM (inactive) | 4.71 µM (inactive) | 34 µM (inactive) | > 100 µM (inactive) | – | > 100 µM (inactive) | > 100 µM (inactive) | > 100 µM (inactive) | 34 µM (inactive) | > 100 µM (inactive) | – |
